Experimental findings from ChEMBL document CHEMBL1201862, “PubChem BioAssay data set” (2004) are described below.

Among the test systems are SK-MEL-5; BT-549; K562; MDA-MB-231; OVCAR-4; A549; UO-31; A498; HL-60; CCRF-CEM; MCF7; RXF 393; SN12C; NCI-H226; OVCAR-3; NCI-H23; 786-0; Malme-3M; SK-MEL-2; NCI/ADR-RES.
Holding throughout (test): DTP human tumour cell line panel, 48 h

“And” between values parts separate entries of the source, which are not always exact repeats. Identical values can stand only once.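 Exposure lasted 48 hours, with cells grown in 96-well plates and compounds tested at five concentrations. Here, GI50 denotes the concentration required for 50% inhibition of growth.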 The source made the active and inactive calls. Cut-off read from the data, not from the text of the source: active = GI50 up to about 1.1 µM and inactive = higher. Starred links: 1 amine or outer side, 2 acyl side, 3 side chain; linkers in the order of their positions; H or OH if unused. Positions of bridges follow the written chain, without caps; N, C: chain ends. Non-standard residues stand in square brackets, D forms with d. Residues, ends and D or L forms follow the SMILES beside them. Chains are numbered I, II in the order given. Actinocin(1to9) = Cc1c2oc3c(C)ccc(C(=O)[*:2])c3nc-2c(C(=O)[*:1])c(N)c1=O; NMeV = CN[CH](C(=O)O)C(C)C; Sar = CNCC(=O)O Some results are limits rather than exact numbers.

A word on the GI50: it is the concentration at which growth is held to half of that of the control. In the case of `Cc1cc(-c2cc(C)c(O)c(C(C)(C)C)c2)cc(C(C)(C)C)c1O`, the GI50 with SK-MEL-5 was 10.6 µM (inactive) and 14.7 µM (inactive); in the experiment on BT-549, 14.1 µM (inactive) and 13.1 µM (inactive); with K562, 9.25 µM (inactive) and 7.69 µM (inactive); with MDA-MB-231 it was 9.55 µM (inactive) and 12.9 µM (inactive); in the experiment on OVCAR-4 it was 12.4 µM (inactive) and 11.6 µM (inactive); in the experiment with A549 it was 9.27 µM (inactive) and 9.59 µM (inactive). Besides, the GI50 in the experiment on UO-31 was 11 µM (inactive) and 18.1 µM (inactive); in the experiment with A498 it was 9.4 µM (inactive) and 17.1 µM (inactive); in the experiment with HL-60 it was 12 µM (inactive); in the experiment on CCRF-CEM, 5.69 µM (inactive) and 5.58 µM (inactive); in the experiment on MCF7 it was 5.02 µM (inactive) and 6.62 µM (inactive); in the experiment with RXF 393, 13.4 µM (inactive) and 11 µM (inactive). Besides, the GI50 in the experiment on SN12C was 13.4 µM (inactive) and 12.3 µM (inactive); in the experiment on NCI-H226, 10.7 µM (inactive) and 19.8 µM (inactive); with OVCAR-3 it was 12.2 µM (inactive) and 14.1 µM (inactive); with NCI-H23, 10.4 µM (inactive) and 12.9 µM (inactive); with 786-0, 10.7 µM (inactive) and 13.1 µM (inactive); in the experiment with Malme-3M, 14.6 µM (inactive) and 21.4 µM (inactive). In addition, the GI50 with SK-MEL-2 was 6.31 µM (inactive) and 12.2 µM (inactive); with NCI/ADR-RES it was 11 µM (inactive) and 14 µM (inactive).

As for `CC(=O)/C(=C\n1c(=S)[nH]c2ccc([N+](=O)[O-])cc21)C(=O)Nc1ccccc1C`, the GI50 in the experiment with SK-MEL-5 was 78.3 µM (inactive); with BT-549 it was 33.3 µM (inactive); with K562, > 100 µM (inactive); in the experiment with MDA-MB-231, > 100 µM (inactive); in the experiment on OVCAR-4, > 100 µM (inactive); with A549, > 100 µM (inactive). The GI50 with A498 was 96.8 µM (inactive); with HL-60, > 100 µM (inactive); in the experiment with CCRF-CEM, > 100 µM (inactive); in the experiment on MCF7 it was > 100 µM (inactive); in the experiment on RXF 393, > 100 µM (inactive); in the experiment with SN12C it was > 100 µM (inactive). Moreover, the GI50 in the experiment on NCI-H226, with OVCAR-3, in the experiment on NCI-H23, in the experiment on 786-0, in the experiment with Malme-3M and in the experiment with SK-MEL-2 was > 100 µM (inactive) each time. In the experiment on NCI/ADR-RES, the GI50 was > 100 µM (inactive).

On to `Oc1nc2ccccc2c(O)c1Cc1ccccc1`, for which the GI50 with SK-MEL-5, with BT-549, with K562, in the experiment with MDA-MB-231, in the experiment with OVCAR-4 and in the experiment on A549 was > 100 µM (inactive) each time. In addition, the GI50 in the experiment with UO-31 was > 10 µM (inactive); in the experiment on A498, > 100 µM (inactive); with HL-60, > 100 µM (inactive); with CCRF-CEM it was > 100 µM (inactive); in the experiment with MCF7, > 100 µM (inactive); in the experiment with RXF 393, > 100 µM (inactive). Moreover, the GI50 in the experiment on SN12C, in the experiment on NCI-H226, with OVCAR-3, in the experiment with NCI-H23, with 786-0 and in the experiment on Malme-3M was > 100 µM (inactive) throughout. The GI50 with NCI/ADR-RES is > 100 µM (inactive).

Take `O=C(NCc1ccccc1)c1cc2ccccc2o/c1=N\c1cccc(C(F)(F)F)c1`: the GI50 in the experiment with SK-MEL-5 was 26.4 µM (inactive); in the experiment on BT-549, > 100 µM (inactive); in the experiment on K562, 36.5 µM (inactive); in the experiment with MDA-MB-231, 75.7 µM (inactive); in the experiment with OVCAR-4 it was 69.7 µM (inactive); in the experiment with A549, 47.1 µM (inactive). Also, the GI50 with UO-31 was 79.1 µM (inactive); in the experiment on A498, 85.1 µM (inactive); with HL-60, 20.5 µM (inactive); in the experiment on CCRF-CEM, 45.1 µM (inactive); with MCF7 it was 42.5 µM (inactive); with RXF 393 it was 78 µM (inactive). For the same molecule, the GI50 with SN12C is 29.3 µM (inactive); in the experiment with NCI-H226 it was 29.8 µM (inactive); with OVCAR-3 it was 67.3 µM (inactive); in the experiment with NCI-H23 it was 57.7 µM (inactive); with 786-0 it was 29.8 µM (inactive); in the experiment with Malme-3M, 48.1 µM (inactive). Besides, the figures for the GI50 in the experiment with SK-MEL-2 and with NCI/ADR-RES were 28.6 µM (inactive) and 47.1 µM (inactive), respectively.

As for `CN1C(=O)C(C(N)=O)C2CC1(C)Oc1ccccc12` (stereo unspecified), the GI50 in the experiment on SK-MEL-5, in the experiment on BT-549, with K562, with MDA-MB-231, with OVCAR-4 and in the experiment on A549 was > 100 µM (inactive) throughout. The GI50 in the experiment on A498, in the experiment with HL-60, with CCRF-CEM, in the experiment on MCF7, in the experiment with RXF 393 and in the experiment with SN12C was > 100 µM (inactive) each time. For the same molecule, the GI50 in the experiment with NCI-H226, in the experiment on OVCAR-3, in the experiment on NCI-H23, in the experiment with 786-0, with Malme-3M and with SK-MEL-2 was > 100 µM (inactive) in each case. Besides, the GI50 in the experiment with NCI/ADR-RES is > 100 µM (inactive).

As for `CCC(C)C1NC(=O)C(NC(=O)c2c3nc4c(C(=O)NC5C(=O)NC(C(C)CC)C(=O)N6CCCC6C(=O)N(C)CC(=O)N(C)C(C(C)C)C(=O)OC5C)ccc(C)c4oc-3c(C)c(=O)c2N)C(C)OC(=O)C(C(C)C)N(C)C(=O)CN(C)C(=O)C2CCCN2C1=O` (stereo unspecified) (I: TIP[Sar][NMeV] / II: TIP[Sar][NMeV]; ester I:1-I:C, II:1-II:C; linker I:N-II:N via Actinocin(1to9); configuration not given here), the GI50 with SK-MEL-5 is 0.000198 µM (active); in the experiment with BT-549, 0.0105 µM (active); in the experiment on K562, < 0.0001 µM (active); in the experiment with MDA-MB-231 it was 0.00561 µM (active); in the experiment with OVCAR-4, 0.00625 µM (active); with A549 it was 0.000753 µM (active). Besides, the GI50 was 0.0204 µM (active) in the experiment on UO-31; 0.0102 µM (active) in the experiment with A498; < 0.0001 µM (active) in the experiment with HL-60; < 0.0001 µM (active) in the experiment on CCRF-CEM; < 0.0001 µM (active) with MCF7; 0.00394 µM (active) with RXF 393. The GI50 in the experiment on SN12C was 0.000282 µM (active); with NCI-H226, 0.000889 µM (active); in the experiment with OVCAR-3 it was 0.00184 µM (active); in the experiment on NCI-H23 it was 0.00133 µM (active); in the experiment with 786-0, 0.000195 µM (active); with Malme-3M, 0.000156 µM (active). Besides, the values for the GI50 with SK-MEL-2 and in the experiment on NCI/ADR-RES were 0.00101 µM (active) and 0.296 µM (active), respectively.

`O=C(CCC(NC(=O)OCc1ccccc1)C(=O)OCc1ccccc1)Nc1ccc(OCc2ccccc2)cc1` (stereo unspecified): the GI50 in the experiment on SK-MEL-5 is > 10 µM (inactive); in the experiment with BT-549, > 10 µM (inactive); in the experiment on K562, 27.2 µM (inactive); with MDA-MB-231, 15.3 µM (inactive); in the experiment on OVCAR-4, 25.2 µM (inactive); in the experiment on A549 it was 19.3 µM (inactive). Besides, the GI50 in the experiment on UO-31 is > 10 µM (inactive); with A498, > 10 µM (inactive); in the experiment on HL-60, > 31.6 µM (inactive); with CCRF-CEM it was 21.8 µM (inactive); in the experiment with MCF7 it was 13 µM (inactive); with RXF 393, 28.3 µM (inactive). The GI50 with SN12C is > 31.6 µM (inactive); in the experiment with NCI-H226, > 31.6 µM (inactive); with OVCAR-3, > 84.1 µM (inactive); with NCI-H23 it was 16.3 µM (inactive); in the experiment with 786-0, 12.6 µM (inactive); in the experiment on Malme-3M it was > 31.6 µM (inactive). In addition, the GI50 is > 10 µM (inactive) in the experiment on SK-MEL-2 and 17.5 µM (inactive) in the experiment with NCI/ADR-RES.

Consider `CC(CN(C)C)C(C#N)(c1ccccc1)c1ccccc1` (stereo unspecified), for which the GI50 in the experiment on SK-MEL-5 was > 100 µM (inactive); with BT-549, > 100 µM (inactive); with K562 it was 65.2 µM (inactive); with MDA-MB-231 it was > 100 µM (inactive); in the experiment on OVCAR-4, > 100 µM (inactive); with A549, > 100 µM (inactive). For the same molecule, the GI50 in the experiment with UO-31 was > 100 µM (inactive); in the experiment on A498, > 100 µM (inactive); in the experiment with HL-60, > 100 µM (inactive); in the experiment with CCRF-CEM, 49.1 µM (inactive); in the experiment with MCF7, > 100 µM (inactive); in the experiment with RXF 393, > 100 µM (inactive). Further, the GI50 in the experiment with SN12C, in the experiment with NCI-H226, in the experiment on OVCAR-3, in the experiment on NCI-H23, in the experiment with 786-0 and in the experiment with Malme-3M was > 100 µM (inactive) each time. Besides, the GI50 with SK-MEL-2 and in the experiment on NCI/ADR-RES was > 100 µM (inactive) in each case.

For the molecule `Oc1ccc(Br)cc1/C=N/c1c(NC2CCCCC2)oc2ccc(Br)cc12`, the GI50 is 40.6 µM (inactive) with SK-MEL-5; 25.5 µM (inactive) with BT-549; 10.7 µM (inactive) in the experiment with K562; 61.5 µM (inactive) in the experiment with MDA-MB-231; 38 µM (inactive) in the experiment on OVCAR-4; 54 µM (inactive) in the experiment with A549. Further, the GI50 in the experiment on UO-31 was 31 µM (inactive); in the experiment on A498, 35.3 µM (inactive); with HL-60, 5.53 µM (inactive); with CCRF-CEM, 4.1 µM (inactive); in the experiment on MCF7 it was 16.2 µM (inactive); in the experiment with RXF 393 it was 12.9 µM (inactive). For the same molecule, the GI50 was 44.4 µM (inactive) with SN12C; 45.3 µM (inactive) in the experiment on NCI-H226; 18.2 µM (inactive) with OVCAR-3; 15.5 µM (inactive) in the experiment with NCI-H23; 37.8 µM (inactive) in the experiment with 786-0; 31.7 µM (inactive) with Malme-3M. For the same molecule, the GI50 with NCI/ADR-RES is 45.5 µM (inactive).
